Values of other authors as cited in patent publication US7977378B1, “Compositions and methods for enhancing weight-loss by cyclical administration of compounds” (priority 2007, dated 2011).

What was measured:
adipocyte = conditions: in vitro
hepatic TG = conditions: 60 mg/kg·day
[1] = test system: hepatic glucose-6-phosphatase
[2] = test system: endothelium-intact rat aorta; conditions: equal potency
[3] = up to 200 mg kg-1
[4] = test system: contractile effect of noradrenaline; conditions: 2×10(−6) and 1×10(−7) M
[5] = test system: contractile responses evoked by phenylephrine and high K+; conditions: 4 approximately 12 microg/mL
[6] = test system: guinea-pig isolated right atria

Which Adipocyte apoptosis (adipocyte) does the source give for `C=CCSSC=CC[S+]([O-])CC=C` (mixture of isomers) [ajoene] here?
The Adipocyte apoptosis was “induced”.

With `Cn1c(=O)c2c(ncn2C)n(C)c1=O` [caffeine] as the compound, how does the “Increase of energy expenditure” value (after ingestion) read?
The value was 13%.

And the “Increase of oxidative FFA disposal” value (after ingestion)?
Its value is 44%.

And the “Share of lipids oxidized” value (after ingestion)?
The value was 24%.

And the “Share of lipids recycled” value (after ingestion)?
Its value is 76%.

And the “Oxidative FFA disposal” value (after ingestion (from 236+/−21))?
The value was 340+/−16 micro mol/min.

And the “Non-oxidative FFA disposal” value (after ingestion (from 455+/−66))?
The value was 1054+/−242 micro mol/min.

What about the “Increase of non-oxidative FFA disposal” value (after ingestion, P<0.01) of the same compound?
The value was 2.3 fold.

And the “Increase of lipid turnover” value (steady state (last hour of the test) after ingestion, P<0.005)?
The value was 2 fold.

With `O=C(/C=C/c1ccc(O)c(O)c1)O[C@@H]1C[C@](O)(C(=O)O)C[C@@H](O)[C@H]1O` [chlorogenic acid] as the compound, how does the “Effect on cell cycle” value (3T3-L1 preadipocytes) read?
Its value is “cell cycle arrest in the G1 phase”.

And the “Level of hepatic TG” value (hepatic TG)?
Its value is “significantly reduced”.

What about the “Inhibition of hepatic glucose-6-phosphatase” value [1] of the same compound?
The value was “selectively inhibit”.

With `C[n+]1c2n(c(=O)c3ccccc31)CCc1c-2[nH]c2ccccc12` [dehydroevodiamine] as the compound, how does the Vasodilatory effect [2] read?
Its Vasodilatory effect is “vasodilatory effect”.

With `COc1ccc([C@@H]2CC(=O)c3c(O)cc(O)cc3O2)cc1O` [hesperitin] as the compound, how does the “Effect on intestinal transit” value [3] read?
Its value is “no effect”.

For `O=C(O)/C=C/c1cccc(O)c1` [m-coumaric acid], which “Effect on cell cycle” value (3T3-L1 preadipocytes) is on record?
Its value is “cell cycle arrest in the G1 phase”.

With `O=C1C[C@@H](c2ccc(O)cc2)Oc2cc(O)cc(O)c21` [naringenin] as the compound, how does the “Contractile effect of noradrenaline” value [4] read?
The value was “increased”.

For `O=C(O)/C=C/c1ccccc1O` [o-coumaric acid], which “Effect on cell cycle” value (3T3-L1 preadipocytes) is on record?
The value was “cell cycle arrest in the G1 phase”.

For (−)-epigallocatechin gallate [EGCG], which “Effect on contractile responses evoked by phenylephrine and high K+” value [5] is on record?
Its value is “did not affect”.

And the Adipocyte apoptosis (adipocyte)?
The Adipocyte apoptosis was “induced”.

For TNF-alpha, which Adipocyte apoptosis (adipocyte) is on record?
The Adipocyte apoptosis was “induced”.

For catechin, which “Effect on intestinal transit” value [3] is on record?
Its value is “no effect”.

Which “Inotropic and chronotropic effects” value [6] does the source give for evodiamine here?
The value was “positive inotropic and chronotropic effects”.

What about the Vasodilatory effect [2] of the same compound?
The Vasodilatory effect was “vasodilatory effect”.

And the Catecholamine secretion (bovine adrenal medulla)?
Its Catecholamine secretion is “stimulate”.

And the “Insensitivity of the cells to acetylcholine or high K+ stimulation” value (bovine adrenal medulla)?
The value was “reversed insensitivity”.
